What all share (type): cell-based
The subject of one test is Acinetobacter baumanni. Conditions: 37° C. for 20 hours; tested twice, first/second value where not matched. As for the experimental part:
(§1) Further, with respect to not only the above-described strains but also various other strains, the “minimum inhibitory concentration (MIC)” was measured as follows. MIC is the lowest concentration of an agent that may inhibit the growth of a bacterium. MIC is used as a parameter for the efficacy of an antibacterial agent, for the strength of bacterial sensitivity, or the like. The bacteria can grow (proliferate) when the concentration is not higher than MIC, and cannot grow when the concentration is higher than MIC. Its measurement is carried out according to a method defined as a standard method by Japanese Society of Chemotherapy or CLINICAL AND LABORATORY […] (CLSI), but, in this Example, its measurement was carried out by a broth microdilution method in accordance with “M100-S17/M7-A7” (Performance Standards for Antimicrobial Susceptibility Testing; Seventeenth Informational Supplement, Vol. 27 No. 1) published by CLSI on January, 2007. That is, sensitivity test of agents was carried out using a microtiter plate or test tubes.
(§2) The bacteria were cultured in liquid media for 4 to 6 hours, and thereafter absorbances at A600 were measured. Bacterial suspensions were diluted with Mueller-Hinton broth (MHB) according to McFarland #0.5. Each strain was added so as to attain about 10^5 CFU/ml (final concentration). Each peptide was prepared to an optional concentration, and the solutions were serially diluted from the concentration. The polypeptide at each concentration stage was added to a microplate or test tubes, and the bacterial suspension was added thereto. Chloramphenicol, amphotericin B, ciprofloxacin, meropenem (MEPM), ciprofloxacin (CPFX), tobramycin (TOB) and oxacillin (OX) were used as positive controls. The plate was incubated at 37° C. for 20 hours, and the lowest concentration where bacterial growth was inhibited was regarded as the minimum inhibitory concentration.

In the next test the test system is Fusobacterium nucleatum. Nature of the test: microbe, parasite or virus in culture. Conditions: Fusobacterium nucleatum; 37° C. for 20 hours; tested twice, first/second value where not matched. As for the experimental part: as §1, §2
The next test deals with Clostridium ramosum. Nature of the test: microbe, parasite or virus in culture. Conditions: Thomasclavelia ramosa; 37° C. for 20 hours; tested twice, first/second value where not matched. As for the experimental part: as §1, §2
The next test has as its system Salmonella enteritidis. Nature of the test: microbe, parasite or virus in culture. Conditions: Salmonella enterica, 37° C. for 20 hours, tested twice, first/second value where not matched. As for the experimental part:
as §1, §2

Another test relates to Salmonella typhimurium. Put plainly: microbe, parasite or virus in culture. Conditions: Salmonella enterica, TYPHIMURIUM; 37° C. for 20 hours; tested twice, first/second value where not matched. On the procedure:
as §1, §2

The test system of a further test is Bacillus subtilis. Nature of the test: microbe, parasite or virus in culture. Conditions: 37° C. for 20 hours, tested twice, first/second value where not matched. As for the experimental part:
as §1, §2

Another test has as its system Bacteroides fragilis. Nature of the test: microbe, parasite or virus in culture. Conditions: Bacteroides fragilis; 37° C. for 20 hours; tested twice, first/second value where not matched. On the procedure:
as §1, §2

A further test has as its system Streptococcus pyogenes. Nature of the test: microbe, parasite or virus in culture. Conditions: 37° C. for 20 hours, tested twice, first/second value where not matched. As for the experimental part: as §1, §2
A further test concerns Enterococcus faecalis. Nature of the test: microbe, parasite or virus in culture. Conditions: 37° C. for 20 hours, tested twice, first/second value where not matched. On the procedure: as §1, §2
A further test relates to Micrococcus luteus. Put plainly: microbe, parasite or virus in culture. Conditions: 37° C. for 20 hours, tested twice, first/second value where not matched. On the procedure:
as §1, §2

In brackets after ≈: the same amount, converted by molar mass.

In the case of `O=C(N[C@H](CO)[C@H](O)c1ccc([N+](=O)[O-])cc1)C(Cl)Cl` [Chloramphenicol], in the test with Acinetobacter baumanni, the “MIC, Acinetobacter baumanni” value is 16/32. Also, the MIC against Fusobacterium nucleatum came to 0.25 µg/mL (≈ 0.774 µM); with Clostridium ramosum, 4 µg/mL (≈ 12.4 µM); against Salmonella enteritidis, 4 µg/mL (≈ 12.4 µM); in the test on Salmonella typhimurium, 4 µg/mL (≈ 12.4 µM); in the test on Bacillus subtilis, 4 µg/mL (≈ 12.4 µM); against Bacteroides fragilis, 1 µg/mL (≈ 3.09 µM). Further, the MIC came out at 2 µg/mL (≈ 6.19 µM) with Streptococcus pyogenes, 4 µg/mL (≈ 12.4 µM) against Enterococcus faecalis and 1 µg/mL (≈ 3.09 µM) against Micrococcus luteus.

The values above are taken from patent US9695219B2, “Polypeptide having antibacterial activity and angiogenesis-inducing activity and wound-healing drug containing said polypeptide” (priority 2009, dated 2017).
